In ChEMBL document CHEMBL1143967, “Targeted inhibition of hedgehog signaling by cyclopamine prodrugs for advanced prostate cancer” (Bioorg Med Chem, 2008):
Active and inactive are the calls of the source. The calls are words filed in the database; no cut-off is given here. *1 amine or outer side, *2 acyl side, *3 side chain or, on linkers, in order; H or OH if unused. Where a SMILES comes first, the peptide text is derived from it. The star is where a group is joined. X1 = CC1=C2C[C@H]3[C@@H](CC=C4C[C@@H](O)CC[C@@]43C)[C@@H]2CC[C@]12O[C@@H]1C[C@H](C)CN(*)[C@H]1[C@H]2C; Morpholide = C1CN(*)CCO1; CO = O=C([*:1])[*:2]

Experiments:
[1] = tested on: DU-145; experiment: Growth inhibition of human DU145 cells at 5 uM after 96 hrs; assay type: functional, cell-based
[2] = tested on: DU-145; experiment: Growth inhibition of human DU145 cells at 10 uM after 96 hrs; assay type: functional, cell-based
[3] = Hydrolysis of prodrug assessed as half life in presence PSA; assay type: ADME
[4] = tested on: DU-145; experiment: Increase in growth inhibition of human DU145 cells in presence of PSA after 96 hrs; assay type: functional, cell-based

In the case of `CC1=C2C[C@H]3[C@@H](CC=C4C[C@@H](O)CC[C@@]43C)[C@@H]2CC[C@]12O[C@@H]1C[C@H](C)CN[C@H]1[C@H]2C`, the Activity [1] is reported as “Active” and the Activity [2] is reported as “Active”.

With `CC1=C2C[C@H]3[C@@H](CC=C4C[C@@H](O)CC[C@@]43C)[C@@H]2CC[C@]12O[C@@H]1C[C@H](C)CN(C(=O)[C@H](CCC(N)=O)NC(=O)[C@H](CC(C)C)NC(=O)[C@H](CCCCN)NC(=O)[C@H](CO)NC(=O)[C@H](CO)NC(=O)[C@H](Cc3c[nH]cn3)NC(=O)N3CCOCC3)[C@H]1[C@H]2C` ({Morpholide-CO}-HSSKLQ-X1) the t1/2 [3] was 22 h and the Activity [4] was “Active”.

Compound `CC1=C2C[C@H]3[C@@H](CC=C4C[C@@H](O)CC[C@@]43C)[C@@H]2CC[C@]12O[C@@H]1C[C@H](C)CN(C(=O)[C@H](CCC(N)=O)NC(=O)[C@H](Cc3ccc(O)cc3)NC(=O)[C@H](CCCCN)NC(=O)[C@H](CO)NC(=O)[C@H](CO)NC(=O)N3CCOCC3)[C@H]1[C@H]2C` ({Morpholide-CO}-SSKYQ-X1) has a t1/2 [3] of 3.2 h.
